How the values were obtained:
[1] = room temperature; cited from earlier work
Penicillium italicum = conditions: cited from earlier work
[2] = system: E. coli O157:H7 (ATCC 35150); conditions: separate study; cited from earlier work
Penicillium chrysogenum = assay: microbe, parasite or virus in culture
Experimental: (§1) To assess the effectiveness of KS against bacteria and fungi, several tests were conducted in accordance with the Antimicrobial Susceptibility Testing Standards outlined by the Clinical and Laboratory Standards Institute (Malvern, Pennsylvania, USA) (CLSI Mo2-A12, 2015) with some modifications, including the minimal inhibitory concentration (MIC), and an agar diffusion disc test. Potassium sorbate solutions with concentrations ranging from 0.5 to 8.0 mg/ml were combined with bacterial cells (10^5 CFU/mL) and fungal spores (105 conidia/mL) in TSB medium with a pH adjusted to 5.5 for bacteria and in Potato Dextrose Broth (“PDB”) medium (with an original pH of 5.5) for fungi. They were then incubated at 37° C. (for E. coli) for 24 hours and 25° C. (for P. chrysogenum) for 6 days. To determine the minimum inhibitory concentration (“MIC”) of antimicrobial substances, optical density (“OD”) at 600 nm was measured through a Bioscreen C device (Oy Growth Curves Ab Ltd., Turku, Finland) using turbidimetric measurements. The MIC refers to the lowest concentration of antimicrobial that prevents visible growth of microorganisms after incubation. For fungal growth, the MIC was determined based on the inhibition of mycelial growth. The negative control was added the same volume of deionized water without potassium sorbate to observe the growth of bacteria and fungi. Furthermore, to determine assess the survivability of cells and spores when exposed to potassium sorbate for 18 hours, microbial counts were expressed as the logarithm of colony forming units per ml (log CFU/mL). Each measurement was performed in triplicate.

E. coli = conditions: concentration of >3 mg/ml; 24 hours at 37° C.
P. chrysogenum = conditions: for spores of P. chrysogenum: concentrations greater than 4 mg/ml, after 6 days of incubation
Experimental: as §1

Escherichia coli 1-894-1 = assay: microbe, parasite or virus in culture
Experimental: Isolated colonies of Escherichia coli 1-894-1 (ATCC, Manassas, Virginia, USA) were picked from the bacterial culture plate and inoculated into 4-5 mL of TSB liquid medium for all bacterial strains. TSB liquid medium was prepared by dissolving a mixture of 17.0 g pancreatic digest of casein, 3.0 g papaic digest of soybean, 2.5 g dextrose, 5.0 g sodium chloride, and 2.5 g dipotassium phosphate in a final volume of 1,000 mL of distilled water, stirring for at least for 20 minutes, and then sterilizing under high pressure ([…] for 20 minutes at 121° C.). To achieve log phase growth, bacterial cultures were incubated at 37° C. for 2-6 hours based on the 0.5 McFarland standard, which corresponds to approximately 1.5×10^8 CFU/mL when the optical density of a bacterial suspension ranged from 0.08 to 0.1. A 1:20 dilution was made by adding 2.0 ml of the original suspension to 38 mL of PBS buffer, and then a 1:10 dilution was prepared by adding 0.01 ml to each well to obtain a final concentration of about 5.0×10^5 CFU/mL.
as §1

bacteria and fungi = conditions: against bacteria and fungi
Experimental: as §1

[3] = previous study; cited from earlier work

Structure (SMILES): C/C=C/C=C/C(=O)[O-].[K+] [KS, potassium sorbate]
- solubility in water [1]: 58.5 g per 100 ml
- MIC against Penicillium italicum (Penicillium italicum): 15000 µg/mL
- MIC against E. coli O157:H7 (ATCC 35150) [2]: 1600 µg/mL

Structure (SMILES): C/C=C/C=C/C(=O)[O-].[K+] [commercial KS, trans, trans-2,4-hexadienoic acid potassium salt]
- MIC (Penicillium chrysogenum; Penicillium chrysogenum, 144 h, pH 5.5, read-out: MIC against P. chrysogenum (preventing mycelial growth)): 8000 µg/mL
- inhibitory effects against E. coli (CFU count) (E. coli): significant inhibitory effects
- spores of P. chrysogenum (P. chrysogenum): significantly decreased
- MIC (Escherichia coli 1-894-1; Escherichia coli, 18941, 24 h, pH 5.5, read-out: MIC against E. coli): 2000 to 4000 µg/mL
- inhibitory effect on the growth of E. coli (Escherichia coli 1-894-1; concentration of 2 mg/ml): mild inhibitory effect
- inhibitory effect on the growth of E. coli (Escherichia coli 1-894-1; concentration of 4 mg/ml): significant inhibitory effect

Structure (SMILES): C/C=C/C=C\C(=O)[O-].[K+] [TAL-derived KS, cis-2, trans-4 potassium sorbate]
- antifungal activities compared with commercial KS (Penicillium chrysogenum): same antifungal activities as commercial KS
- MIC against P. chrysogenum (preventing mycelial growth) (Penicillium chrysogenum; PDB medium pH 5.5, 25° C., 6 days): 6000 µg/mL
- inhibitory effects against E. coli (CFU count) (E. coli): significant inhibitory effects
- inhibition of P. chrysogenum growth as compared to C-KS (P. chrysogenum; concentration of 6 mg/mL, 6 days of incubation): significant inhibition
- spores of P. chrysogenum (P. chrysogenum): significantly decreased
- antimicrobial activity compared with commercial KS (bacteria and fungi): comparable antimicrobial activities
- inhibitory effect on the growth of E. coli (Escherichia coli 1-894-1; concentration of 2 mg/ml): mild inhibitory effect
- inhibitory effect on the growth of E. coli (Escherichia coli 1-894-1; concentration of 4 mg/ml): significant inhibitory effect

Structure (SMILES): C/C=C/C=C/C(=O)[O-].[K+] [trans, trans-potassium sorbate]
- antimicrobial activity compared with the mixture of isomers [3]: higher antimicrobial activity than the mixture of isomers
